In brackets after ≈: the same amount, converted by molar mass.
What was measured:
Assay in all cases: Minimal inhibitory concentration, agar dilution method
Assay type in all cases: cell-based
[1] = test system: Proteus vulgaris HV19
[2] = test system: Proteus miravilis GN2425
[3] = test system: Pseudomonas aeruginosa 104
Source text: (§1) When determined according to the agar dilution method, the penicillins (I) afford the minimal inhibitory concentrations against test microorganisms as shown in Table 2.

[4] = test system: Staphylococcus aureus 209P
Source text: as §1

[5] = test system: Klebsiella pneumoniae PCI602
Source text: as §1

[6] = test system: Escherichia coli NIHJ
Source text: as §1

In the case of CC1(C)SC2C(NC(=O)C(NC(=O)c3nc4ccccc4nc3O)c3cccc(F)c3)C(=O)N2C1C(=O)O (stereo not drawn) [Example 48], the MIC [1] is reported as 0.2 µg/mL (≈ 0.371 µM), the MIC [2] is reported as 12.5 µg/mL (≈ 23.2 µM) and the MIC [3] is reported as 1.56 µg/mL (≈ 2.89 µM). For the same compound, the MIC [4] was 0.78 µg/mL (≈ 1.45 µM), the MIC [5] was 12.5 µg/mL (≈ 23.2 µM) and the MIC [6] was 3.13 µg/mL (≈ 5.8 µM).

CC1(C)SC2C(NC(=O)C(NC(=O)c3cnc4cc5c(cc4c3O)OCC5)c3cccc(N)c3)C(=O)N2C1C(=O)O (stereo not drawn) [Example 49] showed an MIC [1] of 0.2 µg/mL (≈ 0.346 µM), an MIC [2] of 3.13 µg/mL (≈ 5.42 µM) and an MIC [3] of 3.13 µg/mL (≈ 5.42 µM). It also gave an MIC [4] of 0.78 µg/mL (≈ 1.35 µM), an MIC [5] of 6.25 µg/mL (≈ 10.8 µM) and an MIC [6] of 3.13 µg/mL (≈ 5.42 µM).

Work on CC1(C)SC2C(NC(=O)C(NC(=O)c3cnc4c5c(ccc4c3O)CCC5)c3cccc(N)c3)C(=O)N2C1C(=O)O (stereo not drawn) [Example 50] yielded an MIC [1] of 0.39 µg/mL (≈ 0.677 µM), an MIC [2] of 12.5 µg/mL (≈ 21.7 µM) and an MIC [3] of 3.13 µg/mL (≈ 5.44 µM). For the same compound, the MIC [4] was 0.78 µg/mL (≈ 1.35 µM), the MIC [5] was 12.5 µg/mL (≈ 21.7 µM) and the MIC [6] was 3.13 µg/mL (≈ 5.44 µM).

Work on CSc1nc2ccc3ncc(C(=O)NC(C(=O)NC4C(=O)N5C4SC(C)(C)C5C(=O)O)c4cccc(N)c4)c(O)c3c2s1 (stereo not drawn) [Example 51] yielded an MIC [1] of 0.2 µg/mL (≈ 0.313 µM), an MIC [2] of 3.13 µg/mL (≈ 4.9 µM) and an MIC [3] of 3.13 µg/mL (≈ 4.9 µM). It also gave an MIC [4] of 0.78 µg/mL (≈ 1.22 µM), an MIC [5] of 6.25 µg/mL (≈ 9.78 µM) and an MIC [6] of 3.13 µg/mL (≈ 4.9 µM).

CC1(C)SC2C(NC(=O)C(NC(=O)c3cnc4ccc(N5CCCC5)nc4c3O)c3ccc(N)cc3)C(=O)N2C1C(=O)O (stereo not drawn) [Example 52] was tested, and the MIC [1] was 0.05 µg/mL (≈ 0.0826 µM), the MIC [2] was 1.56 µg/mL (≈ 2.58 µM) and the MIC [3] was 1.56 µg/mL (≈ 2.58 µM). It also gave an MIC [4] of 1.56 µg/mL (≈ 2.58 µM), an MIC [5] of 6.25 µg/mL (≈ 10.3 µM) and an MIC [6] of 0.78 µg/mL (≈ 1.29 µM).

Work on CC1(C)SC2C(NC(=O)C(NC(=O)c3cnc4nc(N5CCCC5)ncc4c3O)c3cccc(N)c3)C(=O)N2C1C(=O)O (stereo not drawn) [Example 53] yielded an MIC [1] of 0.025 µg/mL (≈ 0.0412 µM), an MIC [2] of 3.13 µg/mL (≈ 5.16 µM) and an MIC [3] of 3.13 µg/mL (≈ 5.16 µM). The MIC [4] was 1.56 µg/mL (≈ 2.57 µM), the MIC [5] was 6.25 µg/mL (≈ 10.3 µM) and the MIC [6] was 3.13 µg/mL (≈ 5.16 µM).

CC1(C)SC2C(NC(=O)C(NC(=O)c3cnc4nc(N5CCOCC5)ncc4c3O)c3ccc(N)cc3)C(=O)N2C1C(=O)O (stereo not drawn) [Example 54] gave an MIC [1] of 0.05 µg/mL (≈ 0.0803 µM), an MIC [2] of 3.13 µg/mL (≈ 5.03 µM) and an MIC [3] of 3.13 µg/mL (≈ 5.03 µM). For the same compound, the MIC [4] was 1.56 µg/mL (≈ 2.51 µM), the MIC [5] was 6.25 µg/mL (≈ 10 µM) and the MIC [6] was 3.13 µg/mL (≈ 5.03 µM).

CCNc1ccc2ncc(C(=O)NC(C(=O)NC3C(=O)N4C3SC(C)(C)C4C(=O)O)c3cccc(N)c3)c(O)c2n1 (stereo not drawn) [Example 55] showed an MIC [1] of 0.025 µg/mL (≈ 0.0431 µM), an MIC [2] of 0.78 µg/mL (≈ 1.35 µM) and an MIC [3] of 1.56 µg/mL (≈ 2.69 µM). For the same compound, the MIC [4] was 1.56 µg/mL (≈ 2.69 µM), the MIC [5] was 6.25 µg/mL (≈ 10.8 µM) and the MIC [6] was 0.78 µg/mL (≈ 1.35 µM).

Cc1nc(O)c2c(O)c(C(=O)NC(C(=O)NC3C(=O)N4C3SC(C)(C)C4C(=O)O)c3cccc(N)c3)cnc2n1 (stereo not drawn) [Example 56] was tested, and the MIC [1] was 0.05 µg/mL (≈ 0.0881 µM), the MIC [2] was 3.13 µg/mL (≈ 5.51 µM) and the MIC [3] was 3.13 µg/mL (≈ 5.51 µM). It also gave an MIC [4] of 1.56 µg/mL (≈ 2.75 µM), an MIC [5] of 6.25 µg/mL (≈ 11 µM) and an MIC [6] of 1.56 µg/mL (≈ 2.75 µM).

With COc1nc(OC)c2ncc(C(=O)NC(C(=O)NC3C(=O)N4C3SC(C)(C)C4C(=O)O)c3cccc(N)c3)c(O)c2n1 (stereo not drawn) [Example 57] the MIC [1] was 0.025 µg/mL (≈ 0.0418 µM), the MIC [2] was 1.56 µg/mL (≈ 2.61 µM) and the MIC [3] was 1.56 µg/mL (≈ 2.61 µM). It also gave an MIC [4] of 1.56 µg/mL (≈ 2.61 µM), an MIC [5] of 6.25 µg/mL (≈ 10.5 µM) and an MIC [6] of 0.78 µg/mL (≈ 1.31 µM).

Cc1ncc2c(O)c(C(=O)NC(C(=O)NC3C(=O)N4C3SC(C)(C)C4C(=O)O)c3cccc(N)c3)cnc2n1 (stereo not drawn) [Example 58] gave an MIC [1] of 0.05 µg/mL (≈ 0.0906 µM), an MIC [2] of 3.13 µg/mL (≈ 5.67 µM) and an MIC [3] of 3.13 µg/mL (≈ 5.67 µM). For the same compound, the MIC [4] was 1.56 µg/mL (≈ 2.83 µM), the MIC [5] was 12.5 µg/mL (≈ 22.7 µM) and the MIC [6] was 1.56 µg/mL (≈ 2.83 µM).

In the case of CCn1ncc2c(O)c(C(=O)NC(C(=O)NC3C(=O)N4C3SC(C)(C)C4C(=O)O)c3ccc(N)cc3)cnc21 (stereo not drawn) [Example 59], the MIC [1] is reported as 0.1 µg/mL (≈ 0.181 µM), the MIC [2] is reported as 6.25 µg/mL (≈ 11.3 µM) and the MIC [3] is reported as 1.56 µg/mL (≈ 2.82 µM). It also gave an MIC [4] of 0.78 µg/mL (≈ 1.41 µM), an MIC [5] of 12.5 µg/mL (≈ 22.6 µM) and an MIC [6] of 3.13 µg/mL (≈ 5.65 µM).

In the case of Cc1cc(C(NC(=O)c2cnc3cccnc3c2O)C(=O)NC2C(=O)N3C2SC(C)(C)C3C(=O)O)ccc1O (stereo not drawn) [Example 60], the MIC [1] is reported as 0.05 µg/mL (≈ 0.0906 µM), the MIC [2] is reported as 1.56 µg/mL (≈ 2.83 µM) and the MIC [3] is reported as 1.56 µg/mL (≈ 2.83 µM). It also gave an MIC [4] of 0.78 µg/mL (≈ 1.41 µM), an MIC [5] of 6.25 µg/mL (≈ 11.3 µM) and an MIC [6] of 0.78 µg/mL (≈ 1.41 µM).

CC1(C)SC2C(NC(=O)C(NC(=O)c3cnc4cccnc4c3O)c3ccc(O)c(O)c3)C(=O)N2C1C(=O)O (stereo not drawn) [Example 61] showed an MIC [1] of 0.025 µg/mL (≈ 0.0452 µM), an MIC [2] of 1.56 µg/mL (≈ 2.82 µM) and an MIC [3] of 1.56 µg/mL (≈ 2.82 µM). The MIC [4] was 0.78 µg/mL (≈ 1.41 µM), the MIC [5] was 12.5 µg/mL (≈ 22.6 µM) and the MIC [6] was 0.78 µg/mL (≈ 1.41 µM).

CC1(C)SC2C(NC(=O)C(NC(=O)c3cnc4cccnc4c3O)c3ccc(O)c([N+](=O)[O-])c3)C(=O)N2C1C(=O)O (stereo not drawn) [Example 62] was tested, and the MIC [1] was 0.05 µg/mL (≈ 0.0858 µM), the MIC [2] was 3.13 µg/mL (≈ 5.37 µM) and the MIC [3] was 1.56 µg/mL (≈ 2.68 µM). For the same compound, the MIC [4] was 1.56 µg/mL (≈ 2.68 µM), the MIC [5] was 12.5 µg/mL (≈ 21.5 µM) and the MIC [6] was 1.56 µg/mL (≈ 2.68 µM).

With CC1(C)SC2C(NC(=O)C(NC(=O)c3cnc4cccnc4c3O)c3ccc(O)c(N)c3)C(=O)N2C1C(=O)O (stereo not drawn) [Example 63] the MIC [1] was 0.025 µg/mL (≈ 0.0452 µM), the MIC [2] was 1.56 µg/mL (≈ 2.82 µM) and the MIC [3] was 1.56 µg/mL (≈ 2.82 µM). The MIC [4] was 0.78 µg/mL (≈ 1.41 µM), the MIC [5] was 6.25 µg/mL (≈ 11.3 µM) and the MIC [6] was 0.78 µg/mL (≈ 1.41 µM).

Compound COc1cc(C(NC(=O)c2cnc3cccnc3c2O)C(=O)NC2C(=O)N3C2SC(C)(C)C3C(=O)O)ccc1O (stereo not drawn) [Example 64] has an MIC [1] of 0.05 µg/mL (≈ 0.0881 µM), an MIC [2] of 3.13 µg/mL (≈ 5.51 µM) and an MIC [3] of 1.56 µg/mL (≈ 2.75 µM). For the same compound, the MIC [4] was 1.56 µg/mL (≈ 2.75 µM), the MIC [5] was 12.5 µg/mL (≈ 22 µM) and the MIC [6] was 3.13 µg/mL (≈ 5.51 µM).

Source: US3992371A, “Penicillins substituted with heterocyclic and substituted phenyl groups” (Sumitomo Chemical Company, Limited, priority 1973, dated 1976)
